How the values were obtained:
[1] = tested on: perivascular T cells (CD3+); assay: Perivascular CD3+ T cells in lung sections of mice exposed to chronic hypoxia (immunohistochemistry); assay type: in vivo; conditions: WT mice, CH for 2, 5 or 21 days; SR1001 0.625 mg/day for 25 g mouse s.c.; vs vehicle
Experimental: FIGS. 5A-D—Inhibition of TH17 cell development decreases CH-induced increases in perivascular T cells. Following treatment, lungs sections were stained with an anti-CD3 antibody to allow quantification of CD3+ T cells in the perivascular region of the lungs. The RORyt specific inhibitor, SR1001 was delivered daily by sub-cutaneous injection (0.625 mg/day for 25 g mouse) for the length of normoxic or CH exposure. (A) Perivascular CD3+ cells from mice exposed to 2 days, (B) 5 days or (C) 21 days of normoxia or CH. (D) Representative images of lung sections from mice exposed to CH with or without SR1001. Values are means±SEM, *p<0.05 vs. normoxia vehicle. n=3-4/group, 5-15 arteries<150 μm outer circumference, per mouse, analyzed by 2-way ANOVA followed by multiple comparisons Student-Newman-Keuls test.
Methods: Age- and sex-matched mice C57BL/6J wild-type (WT), RAG1 KO mice (lack mature T and B cells), IL-17-GFP mice (express EGFP in cells expressing IL-17A), were used in these studies (The Jackson Laboratory). Mice were exposed to chronic hypoxia (CH) for 2 to 21 days in a hypobaric chamber maintained at a barometric pressure of 380 mmHg. Normoxic animals were housed in identical cages in the same facility under normobaric conditions (PB=630 mmHg in Albuquerque, N. Mex.). […]

CH-induced PH = assay: Development of chronic hypoxia (CH)-induced pulmonary hypertension, 21 days; assay type: in vivo; conditions: mice, CH 21 days; SR1001 0.625 mg/day for 25 g mouse s.c. osmotic pump
Experimental: FIGS. 6A-D—Inhibition of TH17 cell polarization attenuates the development of CH-induced PH. SR1001 prepared in propylene glycol, 0.625 mg/day for 25 g mouse, was delivered sub-cutaneously via an implantable osmotic pump. Mice were exposed to normoxia or chronic hypoxia for 21 days, at which point (A) RVSP, (B) Fulton's index, (C) pulmonary arterial % wall thickness (<150 μm diameter) and (D) hematocrit were measured. Values are means±SEM; *p<0.05 vs. normoxia vehicle #p<0.05 vs. normoxic SR1001, n=4-5/group, analyzed by 2-way ANOVA followed by multiple comparisons Student-Newman-Keuls test.
(§1) Methods: Age- and sex-matched mice C57BL/6J wild-type (WT), RAG1 KO mice (lack mature T and B cells), IL-17-GFP mice (express EGFP in cells expressing IL-17A), were used in these studies (The Jackson Laboratory). Mice were exposed to chronic hypoxia (CH) for 2 to 21 days in a hypobaric chamber maintained at a barometric pressure of 380 mmHg. Normoxic animals were housed in identical cages in the same facility under normobaric conditions (PB=630 mmHg in Albuquerque, N. Mex.).
CD4+ T cells contribute to chronic hypoxia-induced pulmonary hypertension. To directly assess the contribution of T cells to CH-induced PH, recombination-activating gene 1 (RAG1) knockout mice, which lack the enzyme that plays a crucial role in the development of T and B cells were studied. Therefore, RAG1 KO mice lack mature T and B cells (Mombaerts et al., 1992). RAG1 KO mice were exposed to CH for 21 days or left in normoxia. […] RVSP was measured by direct cardiac puncture under isoflurane anesthesia (Bierer et al., 2011). The inventors also isolated CD4^+ or CD8+ cells from the lymph nodes of WT mice by negative selection using a magnetic bead cell isolation kit (Miltenyi Biotec). 2.5×10^5 cells were injected into RAG1 KO mice. After 2 weeks mice were exposed to CH or normoxia.

established PH due to CH = assay: Established CH-induced pulmonary hypertension (reversal: 3 weeks CH, then SR1001 for 2 more weeks in CH); assay type: in vivo; conditions: mice
Experimental: FIGS. 7A-D—TH17 cell inhibition attenuates increases in RVSP in established PH. Wild-type mice were exposed to CH for 21 days followed by administration of SR1001 (25 mg/kg/day s.c.) for an additional 14 days in CH. (A) RVSP. (B) Fulton's index. (C) Pulmonary arterial remodeling. (D) % Hematocrit. Values are means±SEM; *p<0.05 vs. vehicle, n=5-6/group, analyzed by unpaired T-test.
as §1
To follow up on the immunologic timing of events, studies were undertaken to understand whether PH due to CH might be reversed once already established by inhibiting TH17 cell development. Therefore, after 3 weeks of CH, osmotic pumps containing SR1001 (0.625 mg/day for 25 g mouse). were implanted sub-cutaneously and animals were immediately returned to CH for an additional 2 weeks (5 weeks of CH total).

RORα = molecular target: T1, RORα (Homo sapiens, UniProt P35398); conditions: selective inverse agonist; Solt et al., 2011, 2012; cited from earlier work
T1 sequence (P35398 1-523): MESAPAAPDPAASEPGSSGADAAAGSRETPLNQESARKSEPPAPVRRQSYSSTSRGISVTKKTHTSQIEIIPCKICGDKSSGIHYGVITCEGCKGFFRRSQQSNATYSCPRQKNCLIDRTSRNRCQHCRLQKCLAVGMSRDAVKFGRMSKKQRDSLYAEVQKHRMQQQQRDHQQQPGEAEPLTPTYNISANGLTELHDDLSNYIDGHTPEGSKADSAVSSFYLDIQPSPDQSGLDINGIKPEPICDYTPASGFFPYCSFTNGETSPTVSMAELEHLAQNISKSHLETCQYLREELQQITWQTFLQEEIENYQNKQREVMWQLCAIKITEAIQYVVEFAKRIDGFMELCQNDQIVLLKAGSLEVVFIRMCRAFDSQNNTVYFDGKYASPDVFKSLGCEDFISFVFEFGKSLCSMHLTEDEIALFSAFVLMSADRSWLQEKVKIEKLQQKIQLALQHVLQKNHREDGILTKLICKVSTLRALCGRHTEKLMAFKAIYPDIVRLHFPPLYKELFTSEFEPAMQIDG

RORγt = molecular target: T2, RORγt (Homo sapiens, UniProt P51449); conditions: selective inverse agonist; Solt et al., 2011, 2012; cited from earlier work
T2 sequence (P51449 1-497 isoform P51449-2): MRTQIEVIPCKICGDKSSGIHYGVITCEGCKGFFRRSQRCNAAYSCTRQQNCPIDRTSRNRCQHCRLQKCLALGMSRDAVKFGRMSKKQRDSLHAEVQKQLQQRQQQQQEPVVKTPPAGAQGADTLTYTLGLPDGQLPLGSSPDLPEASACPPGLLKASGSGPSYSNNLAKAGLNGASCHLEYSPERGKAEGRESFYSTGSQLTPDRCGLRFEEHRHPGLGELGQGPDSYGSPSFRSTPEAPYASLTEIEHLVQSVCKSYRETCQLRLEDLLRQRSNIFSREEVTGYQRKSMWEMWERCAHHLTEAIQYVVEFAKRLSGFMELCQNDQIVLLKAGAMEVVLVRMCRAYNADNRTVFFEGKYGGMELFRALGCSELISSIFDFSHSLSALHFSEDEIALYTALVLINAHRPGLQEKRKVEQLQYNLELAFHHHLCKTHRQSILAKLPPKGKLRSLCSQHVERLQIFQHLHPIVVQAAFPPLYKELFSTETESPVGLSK

TH17 cell development [2] = conditions: Solt et al., 2011; cited from earlier work
TH17 cell development [3] = conditions: Solt et al., 2011; cited from earlier work; remark: listed apart in the source
[4] = 3 weeks CH then SR1001 for additional 2 weeks in CH

CC(=O)Nc1nc(C)c(S(=O)(=O)Nc2ccc(C(O)(C(F)(F)F)C(F)(F)F)cc2)s1 [SR1001, N-(5-(N-(4-(1,1,1,3,3,3-hexafluoro-2-hydroxypropan-2-yl)phenyl)sulfamoyl)-4-methylthiazol-2-yl)acetamide]
perivascular T cells (CD3+) in the pulmonary arterial perivascular region [1]: significant reduction | CH-induced increase in RV remodeling (Fulton's index) (CH-induced PH): attenuated | CH-induced increase in RVSP (CH-induced PH): attenuated | CH-induced increase in pulmonary arterial remodeling (% wall thickness) (CH-induced PH): attenuated | already elevated RVSP (established PH due to CH; 3 weeks CH then SR1001 (0.625 mg/day for 25 g mouse, s.c. osmotic pump) for additional 2 weeks in CH): significantly decreased | perivascular T cells in the lungs (established PH due to CH; [4]): significant decrease | pulmonary arterial remodeling (established PH due to CH; [4]): no effect | RV remodeling (Fulton's index) (established PH due to CH; 3 weeks CH then SR1001 for additional 2 weeks in CH, p<0.0583): strong trend for a decrease | activity of nuclear receptor RORα (RORα): inhibits the activity | activity of nuclear receptor RORγt (RORγt): inhibits the activity | TH17 cell development in vitro (TH17 cell development [2]): inhibits TH17 cell development | TH17 cell development in vivo (TH17 cell development [3]): inhibits TH17 cell development

Reference: patent publication US20180110774A1, “COMPOSITIONS AND METHODS FOR TREATMENT OF PULMONARY HYPERTENSION” (STC.UNM, priority 2015, published 2018)
